Test results as given in patent publication US20250277793A1, “COMPOSITIONS AND METHODS FOR CANCER DIAGNOSIS” (AOA Dx, priority 2020, published 2025).
Where “and” joins values, the source holds several entries; their conditions need not be identical. Equal entries are not always repeated.

Legend:
anti-GD2 mAbs = test: Direct binding ELISA, GD2 versions with anti-GD2 antibody; set-up: species or system mouse; details: antigen immobilized 10 ng/well, mAb 7 nM final; for OD(450 nm): individual replicate wells; for OD(450 nm) Average: mean of 3
Method: (§1) Native gangliosides (GD2 or GD3, Control), Tria-tri-GD2, Tria-tri-GD3, PAMAM-GD2, PAMAM-GD3, or the monomeric precursors AP-GD2 or AP-GD3 were immobilized onto polystyrene Corning Strip Well 96-well plates (10 ng/well). After bocking all wells with albumin (BSA), the wells were reacted for binding by anti-GD2 or […] (7 nM final) or with serum from mice vaccinated with PAMAM-GD2 (1:75 dilution). Secondary antibody used was horseradish peroxidase (HRP)-conjugated anti-mouse IgG (Sigma). BG=background control.

[1] = system: serum from mice vaccinated with PAMAM-GD2; test: Direct binding ELISA, GD2 versions with vaccinated mouse sera; details: antigen 10 ng/well, serum 1:75 dilution; for OD(450 nm): individual replicate wells; for OD(450 nm) Average: mean of 3
Method: as §1

anti-GD3 mAbs = test: Direct binding ELISA, GD3 versions with anti-GD3 antibody; set-up: species or system mouse; details: antigen immobilized 10 ng/well, mAb 7 nM final; for OD(450 nm): individual replicate wells; for OD(450 nm) Average: mean of 3
Method: as §1

[2] = system: antisera raised against PAMAM-GD3; test: Direct binding ELISA, GD3 versions with vaccinated mouse sera; set-up: species or system mice; details: antigen 10 ng/well, serum 1:75 dilution; for OD(450 nm): individual replicate wells; for OD(450 nm) Average: mean of 3
[3] = Water solubility of intermediate carbohydrates; format: physicochemical; details: read-out: water soluble
Method: p-Aminophenylether-b-D-lactopyranoside (AP-Lac, from Toronto Research Chemicals) was used to enzymatically synthesize water soluble (>20 mg/ml) AP-GD2 and AP-GD3 intermediate carbohydrates. The synthesis of AP-GD2 included […] of AP-GD3 (4 mM), […] of UDP-GalNAc (5.4 mM), and 10.5 units of CgtA (construct CJL-30), 10 mM MnCl2 and 24 mM Hepes pH 7.0 in a final volume of 55 ml. The reaction mixture was incubated at 37° C. for 6.5 hr. Insoluble material was removed by centrifugation at 27,000 g for 15 min and the enzyme was removed by ultrafiltration using a 10 kDa membrane cut off. The filtrate was loaded on SepPak C18 5 g column (waters Corp) and the product was eluted with water while unidentified contaminants remained in the column. The product was further purified by anion exchange chromatography on HiTrapQ (GE Healthcare) using a gradient of 0-0.3 M NH4HCO3 and by size exclusion chromatography on a Superdex Peptide 10/300 GL column (GE Healthcare). The measured molecular weights of AP-GD2 (1,218 g/mol) and AP-GD3 (927 g/mol) correspond to expected values. Structures were verified by 1D and 2D NMR spectroscopy and mass spectrometry (EI-MS). […]

Structure (SMILES)	OD(450 nm) (anti-GD2 mAbs; listed as Control)	OD(450 nm) Average (anti-GD2 mAbs)	OD(450 nm) [1]	OD(450 nm) Average [1]	OD(450 nm) (anti-GD3 mAbs)	OD(450 nm) Average (anti-GD3 mAbs)	OD(450 nm) [2]	OD(450 nm) Average [2]	OD(450 nm) (anti-GD2 mAbs)	solubility [3] [mg/mL]
CC/C=C/C(O)C(CO[C@@H]1OC(CO)[C@@H](O[C@@H]2OC(CO)[C@H](O[C@@H]3OC(CO)[C@H](O)C(O)C3NC(C)=O)C(O[C@]3(C(=O)O)CC(O)[C@@H](NC(C)=O)C([C@H](O)[C@@H](CO)O[C@]4(C(=O)O)CC(O)[C@@H](NC(C)=O)C([C@H](O)[C@H](O)CO)O4)O3)C2O)C(O)C1O)NC(=O)CC (stereo partly drawn) [GD2, reference compound]	1.174 and 1.069 and 1.072	1.105	1.319 and 1.23 and 1.128	1.226	–	–	–	–	–	–
CC/C=C/C(O)C(CO[C@@H]1OC(CO)[C@@H](O[C@@H]2OC(CO)[C@H](O)C(O[C@]3(C(=O)O)CC(O)[C@@H](NC(C)=O)C([C@H](O)[C@@H](CO)O[C@]4(C(=O)O)CC(O)[C@@H](NC(C)=O)C([C@H](O)[C@H](O)CO)O4)O3)C2O)C(O)C1O)NC(=O)CC (stereo partly drawn) [GD3, reference compound]	–	–	–	–	0.602 and 0.465 and 0.493	0.52	0.646 and 0.534 and 0.555	0.5783	–	–
CC(=O)NC1C(OC2C(CO)OC(OC3C(CO)OC(Oc4ccc(N)cc4)C(O)C3O)C(O)C2OC2(C(=O)O)CC(O)C(NC(C)=O)C([C@H](O)C(CO)OC3(C(=O)O)CC(O)C(NC(C)=O)C([C@H](O)[C@H](O)CO)O3)O2)OC(CO)C(O)C1O (stereo partly drawn) [AP-GD2, p-amino phenyl ether-GD2]	–	0.5363	0.694 and 0.587 and 0.635	0.6387	–	–	–	–	0.483 and 0.558 and 0.568	> 20
CC(=O)NC1C(O)CC(OC2C(O)C(CO)OC(OC3C(CO)OC(Oc4ccc(N)cc4)C(O)C3O)C2O)(C(=O)O)OC1[C@H](O)C(CO)OC1(C(=O)O)CC(O)C(NC(C)=O)C([C@H](O)[C@H](O)CO)O1 (stereo partly drawn) [AP-GD3, p-amino phenyl ether-GD3]	–	–	–	–	0.483 and 0.558 and 0.568	0.5363	0.483 and 0.558 and 0.568	0.5363	–	> 20
